The structures appear in SMILES notation.

The data set is described as follows: in vitro. Conditions: human, hela cells, % viability.

With `COc1cccc(-c2nc(-c3ccc4[nH]c(=O)[nH]c4c3)cs2)c1OC` [CBK298271], the viability – broadly, a read-out of living cells in per cent, often relative to untreated cells – at 28.5 h, 10 µM is 108%.

As to `CN(C)c1nc(Cl)c(C=Cc2cc(C(=O)O)c3ccccc3n2)s1` [CBK298272], the viability at 28.5 h, 10 µM was 110%.

As for `CN1CCN(c2cc(CNC(=O)c3ccnc(Cl)c3)ccn2)CC1` [CBK298275], the viability at 28.5 h, 10 µM is 92.4%.

Consider `CN(Cc1ccc2c(c1)OCO2)C(=O)c1cnn2c(-c3ccccc3)ccnc12` [CBK298276], for which the viability at 28.5 h, 10 µM is 95%.

`Cc1ccccc1-c1nnc(-c2ccc(C(=O)N=c3sccn3C)cc2)o1` [CBK298283]: the viability at 28.5 h, 10 µM came out at 97.1%.

Take `CC(NC(=O)c1cc(-c2ccccc2)nc2ccccc12)c1cccc(S(N)(=O)=O)c1` (stereo not drawn) [CBK298285]: the viability at 28.5 h, 10 µM worked out at 79.5%.

`Cc1nccn1-c1ccc(NC(=O)C2CC(=O)N(C3CCCC3)C2)cc1F` (stereo not drawn) [CBK298286]: the viability at 28.5 h, 10 µM is 83.1%.

On to `CCc1nc(NC(=O)c2ccnc(Cl)c2)sc1C` [CBK298287], for which the viability at 28.5 h, 10 µM worked out at 101%.

For `CN(c1ccccc1C(N)=O)S(=O)(=O)c1ccc(S(=O)(=O)C(F)F)cc1` [CBK298289], the viability at 28.5 h, 10 µM turned out to be 88.3%.

As for `CCCCCNC(=O)C1CCN(Cn2c(=O)oc3cc(Cl)ccc32)CC1` [CBK298290], the viability at 28.5 h, 10 µM is 86.3%.

`CC(CNC(=O)Cc1ccc(C(F)(F)F)cc1[N+](=O)[O-])N1CCc2ccccc2C1` (stereo not drawn) [CBK298292]: the viability at 28.5 h, 10 µM came to 88.8%.

For `Cn1c(SCC(=O)N2CCN(c3ccccc3)CC2)nc2cc(Cl)ccc21` [CBK298295], the viability at 28.5 h, 10 µM amounted to 99.7%.

Take `O=C(C(OCC(F)(F)F)c1ccccc1)N1CCN(c2nccs2)CC1` (stereo not drawn) [CBK298299]: the viability at 28.5 h, 10 µM is 91.9%.

Take `O=C(c1cccc(C(F)(F)F)c1)N1CCN(C(=O)c2ccc3c(c2)CCC3)CC1` [CBK298300]: the viability at 28.5 h, 10 µM was found to be 91.5%.

Regarding `O=C(NCC1Cc2ccccc2O1)c1cccc(NC(=O)c2ccco2)c1` (stereo not drawn) [CBK298302], the viability at 28.5 h, 10 µM worked out at 83.3%.

As to `CC(=O)N1CCc2cc(C(=O)N[C@@H](Cc3ccccc3)C(=O)O)ccc21` [CBK298303], the viability at 28.5 h, 10 µM was 102%.

In the case of `Cc1cc(Cc2cnc(NC(=O)c3ccncc3)s2)ccc1Br` [CBK298304], the viability at 28.5 h, 10 µM is 106%.

Take `Cc1cc2nnc(SC(C)c3nc(-c4ccccc4)no3)n2c(C)n1` (stereo not drawn) [CBK298306]: the viability at 28.5 h, 10 µM was 91.7%.

As to `Cc1cc(C)cc(C(=O)N2CCCC(C(=O)N3CCN(c4nccs4)CC3)C2)c1` (stereo not drawn) [CBK298307], the viability at 28.5 h, 10 µM was 95.1%.

As for `Cc1nnc(C(C)Sc2nnc(N3CCC(C)CC3)n2Cc2ccco2)o1` (stereo not drawn) [CBK298311], the viability at 28.5 h, 10 µM amounted to 96.6%.

Take `O=C(c1nc(=O)[nH][nH]1)N1CCN(Cc2ccc(C(F)(F)F)cc2)CC1` [CBK298312]: the viability at 28.5 h, 10 µM was 95.5%.

Take `CC(=O)NC(CC(=O)NCc1cccnc1-n1cncn1)c1ccc(Cl)cc1` (stereo not drawn) [CBK298314]: the viability at 28.5 h, 10 µM was found to be 101%.

Turning to `Cc1ccn2c(=O)c(C(=O)NCc3cccnc3N3CCOCC3)cnc2c1` [CBK298316], the viability at 28.5 h, 10 µM amounted to 86.1%.

In the case of `CC(=O)Nc1cccc(-n2nnnc2SCCCc2nc3ccccc3o2)c1` [CBK298317], the viability at 28.5 h, 10 µM worked out at 85.5%.

For the molecule `COc1ccccc1CC(=O)NCCC(=O)N1CCN(c2ccc(F)cc2)CC1` [CBK298318], the viability at 28.5 h, 10 µM was 87.6%.

`O=C(NCC1Cc2ccccc2O1)c1ccc(Br)cc1Cl` (stereo not drawn) [CBK298323]: the viability at 28.5 h, 10 µM worked out at 86.9%.

For the molecule `CC(SCc1ccccc1)C(=O)NCc1ccnc(OCC(F)(F)F)c1` (stereo not drawn) [CBK298325], the viability at 28.5 h, 10 µM stood at 111%.

`CSc1ccc(CN(C)c2cncc(-n3cccn3)n2)cc1` [CBK298326]: the viability at 28.5 h, 10 µM is 91.2%.

On to `Cc1ccc(C(=O)NCCC(=O)Nc2ccccn2)cc1NC(=O)c1ccco1` [CBK298328], for which the viability at 28.5 h, 10 µM stood at 92.2%.

Turning to `Cc1ccccc1-n1c(C)cc(C(=O)CSc2nncn2C)c1C` [CBK298330], the viability at 28.5 h, 10 µM is 91.9%.

For the molecule `COc1cc(CNC(=O)C(C)SCc2ccccc2)ccn1` (stereo not drawn) [CBK298331], the viability at 28.5 h, 10 µM was 90.8%.

With `Nc1nccnc1C(=O)N1CCN(C(=O)Cc2c[nH]c3ccccc23)CC1` [CBK298339], the viability at 28.5 h, 10 µM was 88.1%.

For the molecule `COc1ccc(S(=O)(=O)Nc2ccc(C(=O)O)c(O)c2)cc1[N+](=O)[O-]` [CBK299771], the viability at 28.5 h, 10 µM is 95.7%.

For the molecule `O=C(O)c1ccc(NS(=O)(=O)c2ccc(Br)c3ccccc23)cc1O` [CBK299772], the viability at 28.5 h, 10 µM came to 86.5%.

`O=C(O)CSc1nc2ccc(NC(=O)COc3ccc(Cl)cc3)cc2s1` [CBK299773]: the viability at 28.5 h, 10 µM stood at 84.6%.

For `O=C(Nc1ccccc1C(=O)O)c1cccc(NC(=O)c2ccco2)c1` [CBK299774], the viability at 28.5 h, 10 µM stood at 88.1%.

Regarding `Cc1cccnc1NS(=O)(=O)c1cccs1` [CBK299775], the viability at 28.5 h, 10 µM came out at 80.6%.

On to `CC(C)c1ccc(/C=C2\CCCc3c2nc2ccccc2c3C(=O)O)cc1` [CBK299777], for which the viability at 28.5 h, 10 µM was 91.2%.

Take `CC(=O)c1c(C)oc2c1cc(NS(=O)(=O)c1ccc(C(=O)O)cc1)c1ccccc12` [CBK299780]: the viability at 28.5 h, 10 µM is 92%.

As for `CCOc1cc(C(=O)O)ccc1OCCOc1cccc(C)c1` [CBK299781], the viability at 28.5 h, 10 µM was found to be 91.6%.

In the case of `COc1cc(C)c(S(=O)(=O)Nc2ccc(CC(=O)O)cc2)cc1C` [CBK299782], the viability at 28.5 h, 10 µM stood at 101%.

For `O=C(O)C1CC=CCC1C(=O)Nc1ccc(CN2CCOCC2)cc1` (stereo not drawn) [CBK299786], the viability at 28.5 h, 10 µM was 107%.

With `CC(C)(CC(=O)O)CC(=O)Nc1ccc(N2CCCC2=O)cc1` [CBK299787], the viability at 28.5 h, 10 µM stood at 109%.

Regarding `O=C(O)CCc1ccc(NS(=O)(=O)c2ccc(N3CCCC3=O)cc2)cc1` [CBK299788], the viability at 28.5 h, 10 µM stood at 116%.

Take `CC(=O)c1c(C)oc2ccc(N(C(C)=O)S(=O)(=O)c3ccc(C(=O)O)cc3)cc12` [CBK299790]: the viability at 28.5 h, 10 µM was determined as 106%.

With `O=C(O)CSc1nc2ccc(NC(=O)c3ccccc3Cl)cc2s1` [CBK299791], the viability at 28.5 h, 10 µM is 110%.

Take `CCCCCOc1ccc(NS(=O)(=O)c2cccc(C(=O)O)c2)cc1` [CBK299795]: the viability at 28.5 h, 10 µM is 103%.

As to `O=C(O)c1ccc(OCCNS(=O)(=O)c2ccc3oc4ccccc4c3c2)cc1` [CBK299797], the viability at 28.5 h, 10 µM is 90.8%.

With `CN1C(=O)c2cccc3c(S(=O)(=O)Nc4ccc(C(=O)O)c(O)c4)ccc1c23` [CBK299799], the viability at 28.5 h, 10 µM came out at 109%.

Take `CC(C)COc1ccc(-c2nonc2NC(=O)c2ccco2)cc1` [CBK299802]: the viability at 28.5 h, 10 µM came to 99.1%.

`O=C(O)CCCC(=O)NC(Cc1ccccc1)C(=O)Nc1ccc([N+](=O)[O-])cc1` (stereo not drawn) [CBK299806]: the viability at 28.5 h, 10 µM worked out at 84.5%.

Turning to `O=C(O)c1ccc(OCCNS(=O)(=O)c2ccc3ccccc3c2)cc1` [CBK299807], the viability at 28.5 h, 10 µM was determined as 83.5%.

On to `COc1cccc(C(=O)Nc2nc3ccccc3n2Cc2ccccc2)c1OC` [CBK299811], for which the viability at 28.5 h, 10 µM is 91.4%.

For the molecule `O=C(O)c1ccccc1C(=O)Nc1cccc(-c2noc(-c3cccc(F)c3)n2)c1` [CBK299813], the viability at 28.5 h, 10 µM amounted to 92%.

Regarding `CC(=O)Nc1ccc(NC(=O)CC2(CC(=O)O)CCCCC2)cc1` [CBK299816], the viability at 28.5 h, 10 µM came to 102%.

On to `O=C(O)c1c(-c2ccccc2)oc2ccc(NS(=O)(=O)c3ccc(F)cc3)cc12` [CBK299817], for which the viability at 28.5 h, 10 µM was 89.9%.

Consider `CC(C)c1ccc(S(=O)(=O)Nc2ccc(C(=O)O)c(O)c2)cc1` [CBK299819], for which the viability at 28.5 h, 10 µM amounted to 104%.

With `Cn1c(=O)n(C)c2cc(S(=O)(=O)NCCOc3ccc(C(=O)O)cc3)ccc21` [CBK299824], the viability at 28.5 h, 10 µM was 94.9%.

`COc1cc(S(=O)(=O)NCCOc2ccc(C(=O)O)cc2)c(OC)cc1Cl` [CBK299825]: the viability at 28.5 h, 10 µM amounted to 92.1%.

For `CCc1ccc(S(=O)(=O)Nc2ccc(O)c(C(=O)O)c2)cc1` [CBK299827], the viability at 28.5 h, 10 µM worked out at 90.7%.

For `O=C(O)CCC(=O)Nc1nc(-c2ccc(Cl)cc2)cs1` [CBK299829], the viability at 28.5 h, 10 µM is 86.8%.

With `COc1ccc(CNC(=O)C2CCCN(S(C)(=O)=O)C2)cc1OC` (stereo not drawn) [CBK299830], the viability at 28.5 h, 10 µM came to 90.2%.

Take `CCOc1ccc(-c2nc(-c3cccc(NC(=O)c4ccccc4C(=O)O)c3)no2)cc1` [CBK299832]: the viability at 28.5 h, 10 µM came to 85.2%.

For the molecule `O=C(CSCc1ccc(C(=O)O)cc1)Nc1ccc2ccccc2c1` [CBK299833], the viability at 28.5 h, 10 µM stood at 76.1%.

Consider `CN(CCCC(=O)O)c1nc(-c2ccc(Br)cc2)cs1` [CBK299834], for which the viability at 28.5 h, 10 µM is 88.6%.

Take `Cc1noc(C)c1Cc1ccc(C(=O)Nc2nc3ccccc3n2C)o1` [CBK299839]: the viability at 28.5 h, 10 µM was found to be 85.6%.

Take `O=C(O)CCCC(=O)Nc1ccccc1C(=O)NCc1ccco1` [CBK299840]: the viability at 28.5 h, 10 µM is 85.8%.

Consider `CCn1c2ccccc2c2cc(NC(=O)CC(C)CC(=O)O)ccc21` (stereo not drawn) [CBK300031], for which the viability at 28.5 h, 10 µM amounted to 103%.

As to `Cc1ccc2nc(-c3ccc(-c4ccc(C(C)C)cc4)o3)cc(C(=O)O)c2c1` [CBK300083], the viability at 28.5 h, 10 µM came out at 96.7%.

On to `O=C(O)CCC(=O)Nc1cccc(NC(=O)c2ccc(Br)cc2)c1` [CBK300180], for which the viability at 28.5 h, 10 µM was 84.6%.

With `Cn1c(SCC(=O)Nc2cccc(C(=O)O)c2)nnc1-c1ccccc1` [CBK300479], the viability at 28.5 h, 10 µM was 96.1%.

As for `O=C(O)CCNC(=O)/C(=C/c1ccc(Cl)cc1)NC(=O)c1ccccc1` [CBK300484], the viability at 28.5 h, 10 µM was 86.5%.

Take `O=C(Nc1cc(Oc2cccnc2)cc([N+](=O)[O-])c1)c1sc2ccccc2c1Cl` [CBK300485]: the viability at 28.5 h, 10 µM is 106%.

For `O=C(Nc1nnc(COc2ccccc2)s1)c1cccc2ccccc12` [CBK300487], the viability at 28.5 h, 10 µM was 97.6%.

As for `Cn1c(=O)oc2ccc(C(=O)CSc3nnnn3-c3ccccc3)cc21` [CBK300488], the viability at 28.5 h, 10 µM was determined as 90.1%.

For the molecule `CCCCOc1ccc(C(=O)N/C(=C/c2ccc(OC)cc2)C(=O)O)cc1` [CBK300490], the viability at 28.5 h, 10 µM was determined as 87.5%.

As to `O=C(O)CCCC(=O)Nc1ccc(Cc2ccncc2)cc1` [CBK300493], the viability at 28.5 h, 10 µM came out at 93.1%.

Regarding `CCCc1ccc(-c2cc(C(=O)NCc3cccnc3)c3ccccc3n2)cc1` [CBK300494], the viability at 28.5 h, 10 µM was 92.6%.

Source of the values: PMC12040169 (PLOS Biology, 2025).
